# Entries after “also recorded” stand apart in the source; their conditions may differ.
# Columns and labels:
# [1] = biological target: RPN13 (Homo sapiens, UniProt Q16186); assay: RPN13 AlphaScreen (Rpn13 / biotinylated polyUb recognition); format: binding; settings: RA190 as positive control
# Protocol: Assays were performed with minimal modifications from the manufacturer's protocol (PerkinElmer, USA). All reagents were diluted in 50 mM HEPES, 150 mM NaCl, 0.1% w/v BSA, 0.01% w/v Tween20, pH 7.5, and allowed to equilibrate to room temperature prior to addition to plates. After addition of Alpha beads to master solutions, all subsequent steps were performed under low light conditions. A 2× solution of components with final concentrations of RPN13 at 670 nM, Ni-coated Acceptor Bead at 20 μg/ml, and 5 nM biotinylated-poly-Ub K48-linked chains (UCB-230, BostonBiochem, USA) was added in 10 μL to 384-well plates (AlphaPlate-384, PerkinElmer, USA). Plates were spun down at 150×g, and 100 nL of compound in DMSO from stock plates were added by pin transfer using a Janus Workstation (PerkinElmer, USA). The streptavidin-coated donor beads (20 μg/ml final) were added, as with previous the solution, in a 2×, 10 μL volume. Following this addition, plates were sealed with foil to prevent light exposure and evaporation. The plates were spun down again at 150 g. Plates were incubated at room temperature for 1 hour, and then read on an Envision 2104 (PerkinElmer, USA), using the manufacturer's protocol.
# Several experiments were performed to confirm the specificity of WL40. […] It was then examined whether the bivalent molecule, WL40, can bind to Rpn13. […]
# [2] = test system: polyubiquitinated (PolyUb) protein; assay: Polyubiquitinated protein immunoblot in MM.1S and ANBL6.BR cells; format: cell-based, Human; settings: MM.1S: WL40 200 nM, RA190 300 nM, bortezomib 5 nM; ANBL6.BR: WL40 1 μM 6 hours
# Protocol: MM.1S cells, which were treated with DMSO control, bortezomib, or WL40 at indicated concentration for 3 hours; protein lysates were analyzed for different proteasome activities (CT-L, chymotrypsin-like; T-L, trypsin-like; C-L, caspase-like). FIG. 20B is a bar graph showing percent proteasome activity after normalization with DMSO control (mean±SD; n=3). Recombinant 20S proteasome was incubated with DMSO, bortezomib, or WL40 for 30 minutes, followed by assessment of the above-noted proteasome activities. FIG. 20C MM.1S cells were pretreated with exemplary proteasome inhibitor MG132 (10 μM) for 1 hour, followed by addition of WL40 (400 nM) for 8 hours. […] Total protein lysates were subjected to immunoblots for Rpn13 and α-tubulin. […] FIG. 20E ANBL6.BR cells were treated with WL40 (400 nM) or RA190 (500 nM) for 16 hours; protein lysates were subjected to immunoblot analysis using anti-Rpn13 or anti-β-actin Abs.
# Cellular protein extracts were prepared using RIPA lysis buffer (50 mM Tris-HCl, 150 mM NaCl, 1% NP-40, 0.5% sodium deoxycholate, and 0.1% SDS). […]
# Next, the effect of WL40 on additional MM cell lines, including p53-mutated RPMI-8226 cells or bortezomib-resistant ANBL6.BR cells, was evaluated. […]
# [3] = test system: cyclin-B1, CDC25C, and CDCl2; assay: Cell-cycle regulatory protein immunoblot; format: cell-based, Human; settings: MM.1S 200 nM; ANBL6.BR 1 μM; 16 hours
# Protocol: FIGS. 22A to 22F show the mechanisms of WL40-induced MM cell death. […] MM.1S cells were treated with DMSO control or WL40 (200 nM) for 16 hours, and then analyzed for apoptosis using Annexin V/PI double staining assay (mean±SD; n=3; p<0.001). FIG. 22B is an immunoblot of MM.1S and ANBL6.BR cells, which were treated with DMSO control or WL40 (200 nM for MM.1S; 1 μM for ANBL6.BR) for 16 hours; protein lysates were then subjected to the immunoblotting using antibodies against poly ADP ribose polymerase (PARP), caspase-3, caspase-7, caspase-8, caspase-9, or β-actin. FL, full length; CF, cleaved fragment. FIG. 22C is a bar graph measuring enzymatic activity. MM.1S cells were treated with DMSO control or WL40 (200 nM) for 12 hours, followed by the measurement of caspase-3, caspase-8, or caspase-9 enzymatic activity (mean±SD; n=3; p<0.0001). FIG. 22D is an immunoblot of MM.1S and ANBL6.BR cells, which were treated with DMSO control or WL40 (200 nM for MM.1S; 1 μM for ANBL6.BR) for 16 hours; protein lysates were then subjected to the immunoblotting using specific antibodies against Cyclin-B1, Cell Division Cycle 25C (CDC25C), Cell Division Cycle 2 (CDCl2), or β-actin. […]
# RPN13, sequence (Q16186 whole entry): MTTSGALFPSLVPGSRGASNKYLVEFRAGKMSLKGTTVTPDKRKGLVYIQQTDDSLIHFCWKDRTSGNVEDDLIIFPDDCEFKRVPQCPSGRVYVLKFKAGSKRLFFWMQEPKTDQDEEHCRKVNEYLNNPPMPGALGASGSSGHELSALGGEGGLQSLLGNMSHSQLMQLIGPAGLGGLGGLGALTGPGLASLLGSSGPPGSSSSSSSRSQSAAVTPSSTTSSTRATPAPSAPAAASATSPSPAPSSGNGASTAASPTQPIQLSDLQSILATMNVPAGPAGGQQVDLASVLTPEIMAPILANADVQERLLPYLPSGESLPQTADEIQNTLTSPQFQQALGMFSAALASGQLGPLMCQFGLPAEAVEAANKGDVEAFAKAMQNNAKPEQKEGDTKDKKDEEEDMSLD
smiles,measurement,setting,value
O=C1CCC(N2C(=O)c3cccc(NCCOCCOCCOCCC(=O)N[C@@H](Cc4ccccc4)C(=O)N4C/C(=C\c5ccc(Cl)c(Cl)c5)C(=O)/C(=C/c5ccc(Cl)c(Cl)c5)C4)c3C2=O)C(=O)N1 (stereo partly drawn) [WL40],Rpn13 binding,[1],binds to Rpn13
same,PolyUb protein accumulation (immunoblot),[2],marked increase in PolyUb proteins; also recorded: more rapid and higher molecular weight PolyUb versus bortezomib
same,levels of cell-cycle regulatory proteins,[3],reduction in the levels of cell-cycle regulatory proteins
